# Results from US20020183725A1, “Masking Agent” (priority 2001, published 2002).
# Assays:
# [1] = Fluorescence under the incident laser beam; format: physicochemical; settings: laser beam incident on it
# From the text: This would be a useful property in PTK.
# [2] = Light absorption study of masking solutions with laser radiation (Beer's law, transmission vs. concentration); format: physicochemical; settings: 213 nm laser wavelength; reciprocal of absorption coefficient
# Description: Light absorbent studies were carried out using 213 nm radiation produced as the fifth harmonic wavelength of the fundamental 1064 nm wavelength of an Nd:YAG laser, with a pulse duration of 6 ns and repetition rate of 20 Hz. The pulse energy of the laser was monitored using an energy detector and a storage oscilloscope. The energy of the laser was obtained from the amplitude of the voltage signal delivered from the detector.
# Beer's Law states that if light is passed through solution, energy is attenuated according to the formula:
# Where: αM is the molar absorption coefficient in M^−1 cm^−1
# C is the concentration in moles per liter
# Ef and Ei are the final and initial pulse energies respectively.
# In order to determine the amount of light absorbed (A) by the solution the molar absorption co-efficient is found from the gradient of the log-linear plot of Beer's law.
# The absorption coefficient (α cm^−1) can then be calculated by multiplying the molar absorption coefficient by the concentration. Once the absorption coefficient is obtained, the penetration depth can be calculated from the reciprocal of this value.
# Readings were taken for BSS maintaining the same dilutions. […] Five random readings were taken for each dilution and the mean calculated, in order to reduce the error from inter-pulse variations. […]
compound,measurement,setting,value
"CC1COc2c(N3CCN(C)CC3)c(F)cc3c(=O)c(C(=O)O)cn1c23 (centres unmarked) [Ofloxacin, 9-fluoro-2,3-dihydro-3-methyl-10-(4-methyl-1-piperazinyl)-7-oxo-7H-pyrido[1,2,3-de][1,4]benzoxazine-6-carboxylic acid]",Fluorescence when the laser beam is incident,[1],fluoresces
same,Penetration Depth,[2],50.3 μm
